Measured values as given in patent US20230080054A1 (ILDONG PHARMACEUTICAL CO., LTD., priority 2021, published 2023).

What was measured:
human ANO6 [1] = target: T1, human ANO6 (Homo sapiens, UniProt Q4KMQ2); experiment: YFP quenching assay (ANO6 ion channel activity); type: cell-based; details: 10 μM ionomycin; for inhibition at 30 µM: test compound 30 μM, read-out: Inhibition Level 30 μM; for inhibition at 1 µM: test compound 1 μM, read-out: Inhibition Level 1 μM
T1 construct: expressed in transfected cells
T1 sequence (Q4KMQ2 1-931 isoform Q4KMQ2-2): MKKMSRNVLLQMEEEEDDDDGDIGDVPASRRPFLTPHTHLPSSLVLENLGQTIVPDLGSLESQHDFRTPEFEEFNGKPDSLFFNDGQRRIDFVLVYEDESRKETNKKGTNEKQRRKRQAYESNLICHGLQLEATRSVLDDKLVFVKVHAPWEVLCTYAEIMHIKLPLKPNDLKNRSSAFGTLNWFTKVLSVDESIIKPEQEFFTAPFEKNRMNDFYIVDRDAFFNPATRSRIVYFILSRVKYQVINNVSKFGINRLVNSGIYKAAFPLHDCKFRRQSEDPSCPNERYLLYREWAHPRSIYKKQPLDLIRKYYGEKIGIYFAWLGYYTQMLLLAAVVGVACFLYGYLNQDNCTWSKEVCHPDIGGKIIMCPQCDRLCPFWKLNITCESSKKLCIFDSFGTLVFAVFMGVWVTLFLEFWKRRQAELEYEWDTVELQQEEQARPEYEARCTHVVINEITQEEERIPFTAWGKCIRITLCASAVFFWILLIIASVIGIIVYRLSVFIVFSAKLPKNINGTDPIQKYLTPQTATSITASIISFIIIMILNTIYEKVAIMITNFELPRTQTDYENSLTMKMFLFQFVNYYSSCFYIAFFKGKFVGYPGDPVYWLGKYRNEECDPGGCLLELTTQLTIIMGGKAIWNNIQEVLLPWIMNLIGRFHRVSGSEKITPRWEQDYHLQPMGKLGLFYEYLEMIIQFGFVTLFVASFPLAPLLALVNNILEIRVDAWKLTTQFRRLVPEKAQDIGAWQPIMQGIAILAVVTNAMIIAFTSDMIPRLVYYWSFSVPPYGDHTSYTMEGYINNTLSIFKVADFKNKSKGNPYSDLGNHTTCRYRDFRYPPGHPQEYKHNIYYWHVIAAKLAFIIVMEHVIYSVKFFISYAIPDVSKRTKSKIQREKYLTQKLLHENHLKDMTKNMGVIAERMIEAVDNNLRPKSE
Text: Example 3: YFP Quenching Assay
1. Materials and Instruments
Ionomycin (Alomonelab cat. #I-700), FLUOstar Omega microplate reader (BMG Labtech, Ortenberg, Germany), and MARS Data Analysis Software (BMG Labtech)
Fisher rat thyroid (FRT) cells stably expressing human ANO6 (GenBank accession no. NP_001191732.1, provided by J. H. Nam, Dongguk University College of Medicine, Korea) and halide sensor mutant YFP-H148Q/I152L/F46L) were constructed and grown in Dulbecco's modified Eagle's medium Nutrient Mixture F-12 (DMEM/F-12) supplemented 10% FBS, 100 units/mL penicillin, 500 μg/mL hygromycin B and 100 μg/mL neomycin.
Fisher rat thyroid (FRT) cells stably expressing human ANO6 and halide sensor mutant YFP (H148Q/I152L/F46L) were seeded in black walled 96 well plates and incubated in a 37° C., 5% CO2 incubator to reach about 100% cell confluency. Then, each well of the 96 well plates were washed for several times with phosphate buffered saline (PBS), and 50 μL of PBS was added to each well. Test compounds (100× in DMSO) were added to each well to be 1% v/v DMSO. After incubation for 10 minutes in 40° C., the 96 well plates were transferred to a plate reader, and YFP fluorescence changed by SCN-introduced into cells through activated ANO6 were measured by the following steps.
(1) YFP fluorescence signals were recorded in every 0.4 seconds.
(2) Basal YFP fluorescence signals were recorded for 1 second.
(3) 140 mM SCN-(50 μL) containing 10 μM ionomycin was injected to each well, and YFP fluorescence signals were recorded.
The inhibitory activity (%) of each of the test compounds was obtained by the following steps.
(1) Background signals were subtracted from recording values, and the resulting values were converted to relative percentages. The values at 0 second were set to be 100%.
(2) Differences between the values at 3.6 seconds and those of at 7.6 seconds were calculated.
(3) In each row of 96 well plate, the inhibitory activity of each of the test compounds was calculated as percentages. The inhibitory activity of a negative control group to which neither compounds nor ionomycin were treated was set to be 100%, and the inhibitory activity of a positive control group to which ionomycin was treated and compounds were not treated was set to be 0%.
(4) The assay was performed in duplicate or triplicate, and the results were averaged.

human ANO6 [2] = target: T1, human ANO6; experiment: LACT C2 assay (phosphatidylserine scramblase function assay); type: cell-based; details: FRT cells expressing human ANO6, 10 μM ionomycin; for inhibition at 0.1 µM: test compound 100 nM, read-out: Inhibition Level 100 nM; for inhibition at 1 µM: test compound 1 μM, read-out: Inhibition Level 1 μM
Summary of the method: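 Inhibition was normalised between ionomycin-only (0%) and untreated (100%) wells, with triplicates averaged. Readout was background-corrected Lact-C2-GFP (500 nM) fluorescence from imaged cells. The cells were FRT cells stably expressing human ANO6, given compound at 1% DMSO for 10 min before a 10 min 10 μM ionomycin challenge.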

SMILES	inhibition at 30 µM (human ANO6 [1])	inhibition at 1 µM (human ANO6 [1])	inhibition at 0.1 µM (human ANO6 [2])	inhibition at 1 µM (human ANO6 [2])
Cc1ccc(CNC(=O)c2cccc(Nc3cccnn3)c2)o1 [Compound 5, N-[(5-methylfuran-2-yl)methyl]-3-[(pyridazin-3-yl)amino]benzamide]	30 to 60%			
Cc1ccc(CNC(=O)c2cccc(Nc3ccc(-c4ccco4)nn3)c2)o1 [Compound 8, 3-{[6-(furan-2-yl)pyridazin-3-yl]amino}-N-[(5-methylfuran-2-yl)methyl]benzamide]	≥ 60%	30 to 60%		
Cc1ccc(CNC(=O)c2cccc(Nc3ccc(-c4ccncc4)nn3)c2)o1 [Compound 9, N-[(5-methylfuran-2-yl)methyl]-3-{[6-(pyridin-4-yl)pyridazin-3-yl]amino}benzamide]	≥ 60%	< 30%		
Cc1ccc(CNC(=O)c2cccc(Nc3cnc(-c4ccccc4)nc3)c2)o1 [Compound 11, N-[(5-methylfuran-2-yl)methyl]-3-[(2-phenylpyrimidin-5-yl)amino]benzamide]	≥ 60%	30 to 60%		
Cc1ccc(CNC(=O)c2cccc(Nc3ncc(-c4ccccc4)nn3)c2)o1 [Compound 12, N-[(5-methylfuran-2-yl)methyl]-3-[(6-phenyl-1,2,4-triazin-3-yl)amino]benzamide]	30 to 60%	30 to 60%		
COc1ccc(-c2ccc(Nc3cccc(C(=O)NCc4ccc(C)o4)c3)nn2)cc1 [Compound 13, 3-{[6-(4-methoxyphenyl)pyridazin-3-yl]amino}-N-[(5-methylfuran-2-yl)methyl]benzamide]	≥ 60%	< 30%		
O=C(NCCCN1CCOCC1)c1cccc(Nc2ccc(-c3ccccc3)nn2)c1 [Compound 15, N-[3-(morpholin-4-yl)propyl]-3-[(6-phenylpyridazin-3-yl)amino]benzamide]	30 to 60%	< 30%		
Cc1ccc(CNC(=O)c2cccc(Nc3ccc(-c4ccc(Cl)c(Cl)c4)nn3)c2)o1 [Compound 16, 3-{[6-(3,4-dichlorophenyl)pyridazin-3-yl]amino}-N-[(5-methylfuran-2-yl)methyl]benzamide]	< 30%			
NC(=O)c1cccc(Nc2ccc(-c3ccccc3)nn2)c1 [Compound 17, 3-[(6-phenylpyridazin-3-yl)amino]benzamide]	30 to 60%			
COc1cc(F)ccc1CNC(=O)c1cccc(Nc2ccc(-c3cccc(F)c3)nn2)c1 [Compound 229, N-(4-fluoro-2-methoxybenzyl)-3-((6-(3-fluorophenyl)pyridazin-3-yl)amino)benzamide]			< 30%	< 30%
O=C(NCc1ccc(F)c(F)c1)c1cccc(Nc2ccc(-c3ccccc3)nn2)c1 [Compound 230, N-(3,4-difluorobenzyl)-3-((6-phenylpyridazin-3-yl)amino)benzamide]			< 30%	30 to 60%
Cc1cc(CNC(=O)c2cccc(Nc3ccc(-c4ccccc4)nn3)c2)ccc1F [Compound 231, N-(4-fluoro-3-methylbenzyl)-3-((6-phenylpyridazin-3-yl)amino)benzamide]			< 30%	< 30%
COc1cc(CNC(=O)c2cccc(Nc3ccc(-c4ccccc4)nn3)c2)ccc1F [Compound 232, N-(4-fluoro-3-methoxybenzyl)-3-((6-phenylpyridazin-3-yl)amino)benzamide]			< 30%	< 30%
CC(NC(=O)c1cccc(Nc2ccc(-c3ccccc3)nn2)c1)c1ccc(F)cc1 (stereo not shown) [Compound 233, N-(1-(4-fluorophenyl)ethyl)-3-((6-phenylpyridazin-3-yl)amino)benzamide]			< 30%	< 30%
O=C(N[C@@H]1C[C@H]1c1ccc(F)c(F)c1)c1cccc(Nc2ccc(-c3ccccc3)nn2)c1 [Compound 234, N-((1R,2S)-2-(3,4-difluorophenyl)cyclopropyl)-3-((6-phenylpyridazin-3-yl)amino)benzamide]			30 to 60%	≥ 60%
Cc1ccc([C@@H]2C[C@H]2NC(=O)c2cccc(Nc3ccc(-c4ccccc4)nn3)c2)cc1 [Compound 235, 3-((6-phenylpyridazin-3-yl)amino)-N-((1R,2S)-2-(p-tolyl)cyclopropyl)benzamide]			30 to 60%	≥ 60%
COc1ccc([C@@H]2C[C@H]2NC(=O)c2cccc(Nc3ccc(-c4ccccc4)nn3)c2)cc1 [Compound 236, N-((1R,2S)-2-(4-methoxyphenyl)cyclopropyl)-3-((6-phenylpyridazin-3-yl)amino)benzamide]			< 30%	≥ 60%
O=C(NCC1(O)CC1)c1cccc(Nc2ccc(-c3ccccc3)nn2)c1 [Compound 237, N-((1-hydroxycyclopropyl)methyl)-3-((6-phenylpyridazin-3-yl)amino)benzamide]			< 30%	< 30%

Next, values leading:

inhibition at 30 µM (human ANO6 [1])	inhibition at 1 µM (human ANO6 [1])	inhibition at 0.1 µM (human ANO6 [2])	inhibition at 1 µM (human ANO6 [2])	SMILES
		< 30%	≥ 60%	O=C(Nc1cccc(F)c1)c1cccc(Nc2ncc(-c3cccc(F)c3)cn2)c1 [Compound A91]
		< 30%	≥ 60%	Cc1ccc(NC(=O)c2cccc(Nc3ncc(-c4cccc(F)c4)cn3)c2)cc1C [Compound A92]
		< 30%		O=C(Nc1ccccc1)c1cccc(Nc2ncc(-c3cccc(F)c3)cn2)c1 [Compound A93]
		< 30%		O=C(NC1CCCCCC1)c1cccc(Nc2ncc(-c3cccc(F)c3)cn2)c1 [Compound A94]
		< 30%	30 to 60%	CN(CCCNC(=O)c1cccc(Nc2ccc(-c3ccccc3)nn2)c1)Cc1ccccc1 [Compound A95]
		< 30%	30 to 60%	O=C(NCc1ccc(F)cc1)c1cccc(Nc2ncc(-c3cccc(F)c3)cn2)c1 [Compound A96]
		< 30%	< 30%	Cc1ccc(CNC(=O)c2cccc(Nc3ncc(-c4cccc(F)c4)cn3)c2)cc1 [Compound A97]
		< 30%	30 to 60%	O=C(NCc1ccccc1Cl)c1cccc(Nc2ncc(-c3cccc(F)c3)cn2)c1 [Compound A98]
		< 30%	< 30%	Cc1ccccc1CNC(=O)c1cccc(Nc2ncc(-c3cccc(F)c3)cn2)c1 [Compound A99]
		< 30%	30 to 60%	O=C(NCc1ccc(Br)cc1)c1cccc(Nc2ncc(-c3cccc(F)c3)cn2)c1 [Compound A100]
		< 30%	30 to 60%	O=C(NCc1ccc(Cl)cc1)c1cccc(Nc2ncc(-c3cccc(F)c3)cn2)c1 [Compound A101]
		< 30%	≥ 60%	Cc1ccc(NC(=O)c2cccc(Nc3ncc(-c4cccc(F)c4)cn3)c2)cc1 [Compound A102]
